Reference: patent US11465994B2, “MGluR7 agonist compounds for treating mGluR7-regulated diseases, disorders, or conditions” (Takeda Pharmaceutical Company Limited, priority 2016, dated 2022)
Where two headings read alike, the source gives them in different places.

Legend:
Assay type in all cases: cell-based
[1] = molecular target: T1, mouse mGluR7 (Mus musculus, UniProt Q68ED2); test: cAMP reporter gene assay in CHO-CRE-luc cells stably expressing mouse mGluR7
T1 construct: expressed in transfected cells
Experimental: (§1) Compound activities were determined in CHO-CRE-luc cells stably expressing hu/mo mGluR7, using a cAMP reporter gene assay (Steady Glo, Promega). Selectivity was assessed in stable CHO-mGluR4 cells (DiscoverX) and CHO-mGluR8 transients using an HTRF cAMP assay (Cisbio).
(§2) The activation of mGluR7 was measured by the decreased forskolin stimulated luminescence signal. […] Forskolin stimulated luminescence signal was not reduced for mGluR4 and mGluR8.

[2] = molecular target: mGluR4 (Homo sapiens, UniProt Q14833); test: Selectivity HTRF cAMP assay in stable CHO-mGluR4 cells
Experimental: as §1, §2

[3] = molecular target: T2, mGluR8 (Homo sapiens, UniProt O00222); test: Selectivity HTRF cAMP assay in CHO-mGluR8 transients
T2 construct: expressed in transfected cells; host or cells: CHO (transient transfection)
Experimental: as §1, §2

[4] = molecular target: T3, mGluR7 (Homo sapiens, UniProt Q14831); test: Kinetic impedance assay (desensitization) in stable CHO-mGluR7 cells, response to tool activator CPD A after pre-treatment; settings: pre-treatment, FIG. 1B
Experimental: Stable CHO-mGluR7 cells (DiscoverX) were pre-incubated with compounds (EC80, 1 h), washed and after 30 min, impedance changes upon addition of a tool mGluR7 activator (CPD A) were determined (Cellkey, Molecular Devices).

[5] = test system: mouse cortical synaptosomes; test: Glutamate release assay in mouse cortical synaptosomes
Experimental: Stimulus induced glutamate release from mouse cortical synaptosomes was monitored using a fluorescence based glutamate dehydrogenase assay. Compounds were incubated for 1 or 10 min for the inhibition or potentiation modes respectively.

[6] = test system: CA1 pyramidal cells in mouse hippocampal slices (SC-CA1 pathway); test: Electrophysiology: intracellular EPSC recordings from CA1 pyramidal cells in mouse hippocampal slices
Experimental: FIG. 3A is a graph showing the results of a glutamate release assay for CPD1 in mouse synaptosomes. FIG. 3B is a graph showing the results of a glutamate release potentiation assay. FIG. 3C and FIG. 3D provide graphs of electrophysiological recordings from the SC-CA1 pathway in mouse hippocampal slices. FIG. 3C is a graph comparing the changes in intracellular recordings of excitatory postsynaptic currents (EPSCs) as a result of contact with L-AP4 at a concentration of 0.5 mM, CPD 1 at a concentration of 1 μM, and CPD 1 at a concentration of 5 μM. FIG. 3D is a graph comparing the changes in intracellular recordings of EPSCs in mice with wild-type (WT) mGluR7 and mice with an mGluR7 knock-out contacted with CPD 1 at a concentration of 5 μM.
Intracellular recordings were made from CA1 pyramidal cells following SC stimulation in mouse hippocampal slices. Compounds were applied to the slices for 10 min, with recordings made over a 45 minutes period. mGluR7 KO mice were obtained from the Toronto Centre for Phenogenomics.

[7] = molecular target: T3, mGluR7; test: cAMP CRE-luciferase reporter gene assay (Steady Glo) in CHO-CRE-luc cells stably expressing human mGluR7; parameters: expressed in transfected cells
Experimental: as §1
The ability of the test compounds to activate mGluR7 was determined by their ability to reduce forskolin stimulated cAMP production. Compounds were assessed in a CRE-directed luciferase reporter gene assay, using a stable CHO cell line expressing the CRE-luc reporter and human mGluR7 genes. In this cell line, production of cAMP stimulated the transcription of the luciferase gene and luciferase activity was then measured in a luminescent enzyme assay (Steady Glo assay; Promega E2550). Activation of mGluR7 decreased the forskolin stimulated luminescence signal.
The day prior to the assay, compounds were serially diluted in DMSO (100× final assay concentration (FAC)), in 384-well plates which were then stored in the dark at room temperature (RT) until use. Cells were seeded at 12.5 k/well in white, clear bottom 384-well plates (Corning 3707) and left for one hour at RT followed by an overnight incubation (37° C.). The following day, the DMSO compound plate was diluted 1:20 (5×FAC) in Opti-MEM I (Life Technologies 11058021). The growth media was removed from the cell plate and replaced with 15 μl Opti-MEM I, followed by a 5 μl addition from the 5× compound plate and a fifteen minute incubation (37° C.). Forskolin (Sigma F3917) was then added to the wells (5 μl of 2.5 μM) and the plate was incubated for five hours (37° C.). During this incubation, the Steady Glo Substrate reagent was warmed to 37° C. Aliquots (11 ml; stored at −20° C.) of this reagent were prepared by dissolving the contents of 1 vial of lyophilised substrate in 100 ml Steady-Glo buffer. A 25 μl addition of the substrate was made to all wells and the plate was incubated for thirty minutes at RT, on a plate shaker (300 rpm; in the dark). Luminescence was then measured using the EnVision Multilabel Reader (Perkin Elmer).
Compound activity was examined using a 10-point, half log concentration-response range and each concentration was tested in duplicate wells. Luminescence values were normalised to ‘maximum’ (forskolin alone) and ‘minimum’ (forskolin in the presence of tool mGluR7 agonist) controls.

[8] = molecular target: T3, mGluR7; test: Mode of action: cAMP assay in CHO-CRE-luc human mGluR7 cells in presence of orthosteric antagonist LY341495; parameters: expressed in transfected cells; settings: FIG. 2C, 2D
Experimental: FIGS. 2A-2D are graphs of the results from in vitro cAMP assays in CHO-CRE-luc cells stably expressing human mGluR7 to determine the mode of action of CPD1. FIG. 2A provides the compound activity of non-selective agonist, L-AP4, with increasing concentrations of orthosteric antagonist, LY341495 (LY). FIG. 2B provides the compound activity of a positive allosteric modulator (PAM) compound, VU0422288, for the same concentrations of LY as shown in FIG. 2A.
as §1
The mode of action of the compound in Example 16 was determined by testing activity in the presence of the orthosteric antagonist LY341495 (LY).

T2 sequence (O00222 34-908, species assumed): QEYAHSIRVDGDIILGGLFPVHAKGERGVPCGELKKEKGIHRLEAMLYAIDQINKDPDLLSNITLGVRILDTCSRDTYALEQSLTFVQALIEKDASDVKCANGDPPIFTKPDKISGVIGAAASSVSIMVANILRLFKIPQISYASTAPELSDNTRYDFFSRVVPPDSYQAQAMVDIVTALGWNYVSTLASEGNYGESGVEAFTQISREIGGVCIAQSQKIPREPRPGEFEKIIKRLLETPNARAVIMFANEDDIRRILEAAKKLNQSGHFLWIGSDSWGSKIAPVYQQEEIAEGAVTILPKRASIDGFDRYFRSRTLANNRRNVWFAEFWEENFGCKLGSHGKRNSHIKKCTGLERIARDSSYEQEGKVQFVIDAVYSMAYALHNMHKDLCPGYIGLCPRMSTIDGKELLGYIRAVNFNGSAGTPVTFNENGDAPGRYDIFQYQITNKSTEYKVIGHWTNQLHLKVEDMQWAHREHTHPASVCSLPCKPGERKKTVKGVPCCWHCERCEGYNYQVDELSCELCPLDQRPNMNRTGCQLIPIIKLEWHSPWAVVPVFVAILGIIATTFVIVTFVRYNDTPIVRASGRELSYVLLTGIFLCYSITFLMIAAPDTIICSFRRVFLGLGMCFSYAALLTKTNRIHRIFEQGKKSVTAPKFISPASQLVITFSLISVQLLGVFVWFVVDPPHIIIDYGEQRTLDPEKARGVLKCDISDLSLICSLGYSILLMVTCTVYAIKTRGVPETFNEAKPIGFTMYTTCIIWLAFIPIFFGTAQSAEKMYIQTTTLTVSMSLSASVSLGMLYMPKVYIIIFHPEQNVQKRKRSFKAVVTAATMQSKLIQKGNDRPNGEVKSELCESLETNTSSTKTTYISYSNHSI
T3 sequence (Q14831 35-915): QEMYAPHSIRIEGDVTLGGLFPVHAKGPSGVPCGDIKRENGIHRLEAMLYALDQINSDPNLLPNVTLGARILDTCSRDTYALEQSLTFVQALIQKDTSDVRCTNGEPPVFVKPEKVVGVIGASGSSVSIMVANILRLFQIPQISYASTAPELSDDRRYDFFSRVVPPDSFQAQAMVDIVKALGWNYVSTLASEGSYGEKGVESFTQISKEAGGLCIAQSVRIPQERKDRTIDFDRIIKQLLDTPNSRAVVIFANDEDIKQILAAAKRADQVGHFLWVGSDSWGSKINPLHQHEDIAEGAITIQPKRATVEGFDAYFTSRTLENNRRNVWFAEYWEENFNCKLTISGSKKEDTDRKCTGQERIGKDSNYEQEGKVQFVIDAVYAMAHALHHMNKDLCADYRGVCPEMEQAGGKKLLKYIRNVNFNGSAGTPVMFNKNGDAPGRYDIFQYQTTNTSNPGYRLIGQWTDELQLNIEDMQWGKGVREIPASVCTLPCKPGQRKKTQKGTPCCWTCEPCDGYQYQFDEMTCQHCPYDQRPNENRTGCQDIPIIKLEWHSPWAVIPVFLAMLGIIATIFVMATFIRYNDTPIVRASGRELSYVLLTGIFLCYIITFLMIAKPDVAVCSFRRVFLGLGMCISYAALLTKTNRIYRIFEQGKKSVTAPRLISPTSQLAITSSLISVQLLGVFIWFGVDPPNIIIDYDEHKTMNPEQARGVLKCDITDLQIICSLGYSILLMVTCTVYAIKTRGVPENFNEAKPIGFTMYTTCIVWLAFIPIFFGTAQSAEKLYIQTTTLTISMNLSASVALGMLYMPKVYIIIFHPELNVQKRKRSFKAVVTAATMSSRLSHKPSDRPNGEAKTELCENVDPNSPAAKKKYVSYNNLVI
Sequence of mGluR4 (Q14833 33-912): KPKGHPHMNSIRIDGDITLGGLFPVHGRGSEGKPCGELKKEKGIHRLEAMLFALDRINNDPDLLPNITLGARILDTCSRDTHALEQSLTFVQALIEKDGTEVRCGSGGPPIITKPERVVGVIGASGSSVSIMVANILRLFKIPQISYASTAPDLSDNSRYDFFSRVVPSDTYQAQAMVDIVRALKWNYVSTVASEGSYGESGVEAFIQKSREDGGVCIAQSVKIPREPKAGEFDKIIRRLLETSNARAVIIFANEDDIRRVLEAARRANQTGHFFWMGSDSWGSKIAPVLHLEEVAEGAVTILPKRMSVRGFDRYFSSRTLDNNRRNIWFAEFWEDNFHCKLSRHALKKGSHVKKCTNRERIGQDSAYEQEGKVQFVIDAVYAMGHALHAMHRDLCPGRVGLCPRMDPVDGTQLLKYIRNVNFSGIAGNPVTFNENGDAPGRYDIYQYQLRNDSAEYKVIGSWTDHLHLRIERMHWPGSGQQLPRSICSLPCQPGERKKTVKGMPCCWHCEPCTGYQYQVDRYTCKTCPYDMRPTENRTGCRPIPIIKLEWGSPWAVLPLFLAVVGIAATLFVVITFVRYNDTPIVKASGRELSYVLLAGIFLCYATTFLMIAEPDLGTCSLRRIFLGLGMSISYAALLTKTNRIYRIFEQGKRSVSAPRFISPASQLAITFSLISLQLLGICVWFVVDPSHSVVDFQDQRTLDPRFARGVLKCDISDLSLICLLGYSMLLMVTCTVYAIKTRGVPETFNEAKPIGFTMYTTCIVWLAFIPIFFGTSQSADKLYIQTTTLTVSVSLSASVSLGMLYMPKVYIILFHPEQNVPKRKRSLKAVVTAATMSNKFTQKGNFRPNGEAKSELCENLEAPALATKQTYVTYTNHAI
T1 sequence (Q68ED2 35-915): as the sequence (Q14831 35-915) above, with S454T, A486P, D544N counted along it

C[C@H](C(=O)NC1COc2ccccc2C1S(C)(=O)=O)c1ccc(F)cc1 (single isomer, unassigned) [Example 16]
agonist activity at mGluR7, mouse samples (in words) ([1]; FIG. 1A): full agonist | EC50 ([1]; mean ± standard deviation, n=2): 1.8 ± 3.5 nM | Emax mGluR7 (mouse) ([1]; mean ± standard deviation, n=2): 100 ± 0.1 % control | activity at mGluR4 (in words) ([2]; FIG. 1A): no activity | EC50 mGluR4 ([2]; tested ≤10 μM): inactive | Emax mGluR4 ([2]; tested ≤10 μM): inactive | activity at mGluR8 (in words) ([3]; FIG. 1A): no activity | EC50 mGluR8 ([3]; tested ≤10 μM): inactive | Emax mGluR8 ([3]; tested ≤10 μM): inactive | effect of pre-treatment on response to CPD A (in words) [4]: did not alter | EC50 ([5]; Mus musculus, 1 min, short incubation (1 minute), FIG. 3A, read-out: EC50 of reduction of glutamate release): 34 nM | enhancement of glutamate release ([5]; longer exposure (10 minutes), FIG. 3B): 92% | reduction of glutamate release ([5]; short incubation (1 minute), FIG. 3A): 30% | activity on EPSCs in slices from mGluR7 KO mice (in words) ([6]; mGluR7 KO mice, 5 μM, FIG. 3D): inactive | effect on excitatory postsynaptic currents (EPSCs) amplitude (in words) ([6]; wild-type mouse hippocampal slices, FIG. 3C): bimodal effect | agonist activity at mGluR7, human samples (in words) ([7]; FIG. 1A): full agonist | Emax mGluR7 (human) ([7]; mean ± standard deviation, n=2): 100 ± 1.8 % control | EC50 ([7]; mean ± standard deviation, n=2, read-out: EC50 mGluR7 (human)): 6.9 ± 0.8 nM | EC50 ([7]; reduction of forskolin stimulated cAMP (luminescence), CHO CRE-luc human mGluR7, read-out: EC50): 7 nM | effect of increasing LY341495 concentrations on compound activity (in words) [8]: unaffected
